Test results from patent US20140045807A2, “THE USE OF 3-METHOXY-PREGNENOLONE FOR THE PREPARATION OF A DRUG FOR TREATING A TRAUMATIC BRAIN INJURY” (priority 2004, published 2014).

Assays:
[1] = target: purified tubulin and MAP2 (Homo sapiens, UniProt P11137); assay: MAP2-induced polymerization of microtubules in vitro (optical density at 345 nm); format: biochemical
Experimental: Purified MAP2 and tubulin are mixed in the presence of GTP at 4° C. in a spectrophotometer cuvette. Polymerization is induced by heating at 37° C. and is followed by the increase in optical density (OD) which indicates the quantity of polymers formed.
This in vitro test measures the effect of molecules on the MAP2-induced polymerization of microtubules. This polymerization occurs when MAP2 proteins and tubulin are mixed at adequate concentrations in the presence of GTP. It is accompanied by an increase in optical density measured at 345 nm for 15 to 30 minutes with a UNICON spectrophotometer thermostated at 37° C. (FIG. 1).
Activity is measured by the increase in optical density at 345 nm of a mixture of purified tubulin and MAP2, incubated at 37° C. in the presence of GTP.

CCI traumatized animals = assay: Water Exploration Test (WET) after Controlled Cortical Impact (CCI); format: in vivo, rat; set-up: key to Time spent in CZ, Conclusion vs. CCI-D0: ↓ ↓ ↓: decrease of analyzed variable with p < 0.001; ?: stability of analyzed variable; ↑: increase in analyzed variable with p < 0.05; key to Entry number in CZ, Conclusion vs. CCI-D0: ↓: decrease of analyzed variable with p < 0.05; ?: stability of analyzed variable; ↑ ↑: increase in analyzed variable with p < 0.01; settings: for Entry number in CZ, Mean / Time spent in CZ, Mean: C-D0 = 100
Experimental: Male Sprague-Dawley rats of […] are used. There were 12 animals per group for all in vivo experiments (WET, MRI) except for the CHI injury which requested 17 animals per group because of the post-trauma mortality rate. Each group was then split in two subgroups of 6 individuals for all post-mortem analysis (biochemical, histological and immunohistological analysis.
CCI was performed with an electromagnetic impact device as described (MyNeurolab, St. Louis, Mo.; Brody et al. 2007). Anesthesized rats were subjected to a single right lateral CCI, with the following parameters: impact centered 4.0 mm anterior to lambda and 4.5 mm […] of midline, within the craniotomy of the animal. The impact was set at a velocity of 4 m/s with a sustained depression of 200 ms, using a 5.0 mm tip.
The […] is a rat, the more time it will spend “floating” (null velocity) in the central zone (see Fares-2009).
More precisely, a circular tank (180 cm diameter, 60 cm high) is filled with water maintained at 27° C. to a depth of 40 cm. The water is made opaque by adding black gouache, allowing the VideoTrack system (ViewPoint) to detect the white-coloured rat. This tank is divided into 4 identical quadrants (6,358 cm2 each) using two 180 cm long opaque plastic separators. In each quadrant, one rat is introduced with its head facing the corner between the separator and the tank's wall. It is noteworthy to emphasize that 4 rats can be tested simultaneously using the 4 quadrants. Using the VideoTrack system, we draw two virtual areas: a large one delineates the whole quadrant in which the rat is placed, the so-called Full Quadrant (FQ) and a small one that delineates a central zone (CZ). The CZ, having the same shape as the FQ, measures 2,921 cm2, and is considered to be anxiogenic for animals. Thus, the distance, the number of entries, the time spent, and the velocity profile in the CZ are measured to assess anxiety-like behaviour. In addition, the total distance traveled in the FQ represents an indicator of motor activity. The duration of each trial is 5 minutes.
The effect of 3-methoxy-PREG (MAP4343) on anxiety induced by trauma was analyzed using the WET test.

Androgen Receptor (AR) = Androgen Receptor (AR) (Rattus norvegicus, UniProt P15207); assay: Radioligand binding assay, AR; settings: MAP4343 10 μM; 1.5 nM [^3H] Mibolerone; Rat recombinant E. coli
Androgen Receptor (AR), sequence (P15207 whole entry S389L): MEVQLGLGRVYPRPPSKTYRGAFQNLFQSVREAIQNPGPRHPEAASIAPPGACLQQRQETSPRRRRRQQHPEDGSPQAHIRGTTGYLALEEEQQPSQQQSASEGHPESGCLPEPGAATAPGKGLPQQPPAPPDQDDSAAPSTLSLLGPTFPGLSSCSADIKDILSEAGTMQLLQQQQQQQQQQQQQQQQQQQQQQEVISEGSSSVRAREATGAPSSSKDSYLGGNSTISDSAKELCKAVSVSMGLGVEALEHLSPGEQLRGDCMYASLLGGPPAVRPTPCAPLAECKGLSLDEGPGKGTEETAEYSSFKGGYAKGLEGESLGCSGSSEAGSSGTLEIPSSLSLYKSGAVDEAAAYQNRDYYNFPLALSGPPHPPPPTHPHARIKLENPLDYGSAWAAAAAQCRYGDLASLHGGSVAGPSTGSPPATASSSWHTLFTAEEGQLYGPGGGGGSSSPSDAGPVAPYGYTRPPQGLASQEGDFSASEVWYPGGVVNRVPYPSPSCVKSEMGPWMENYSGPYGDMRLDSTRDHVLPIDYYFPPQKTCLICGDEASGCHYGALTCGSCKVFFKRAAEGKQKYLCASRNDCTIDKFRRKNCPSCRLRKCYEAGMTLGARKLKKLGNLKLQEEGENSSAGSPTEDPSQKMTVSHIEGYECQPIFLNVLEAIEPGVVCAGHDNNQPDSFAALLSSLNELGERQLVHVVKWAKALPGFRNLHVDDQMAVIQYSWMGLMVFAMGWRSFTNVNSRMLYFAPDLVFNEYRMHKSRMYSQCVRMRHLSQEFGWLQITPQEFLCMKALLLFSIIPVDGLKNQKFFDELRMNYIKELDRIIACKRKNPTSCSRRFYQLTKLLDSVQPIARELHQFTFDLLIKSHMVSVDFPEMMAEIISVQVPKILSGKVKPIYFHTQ
Experimental: Binding affinity of 3-methoxy-PREG (MAP4343) for receptors of steroid hormones was evaluated using radioligand binding assays.

synaptophysin = assay: Western blot of synaptophysin in cortex and hippocampus after CCI; format: in vivo, rat; settings: 20 mg/kg, first injection 2 h post-trauma, day 35, injured hippocampus
Experimental: FIG. 22: Synaptophysin expression, 35 days after TBI, in the left-uninjured and right-injured hemispheres (A: cortex and B: hippocampus) of CCI-injured animals, receiving either vehicle (D0) or MAP4343 (D1: 10 mg/kg and D2: 20 mg/kg), 2 h after injury.
(§1) Samples were analyzed by Western-blot at day 35 post-trauma (D35) to evaluate the effects of MAP4343 on: MAP2 (the target of MAP4343 and a modulator of microtubule function), the post-synaptic markers PSD95 and spinophilin, the pre-synaptic marker synaptophysin, and the axonal growth/integrity marker GAP43.
(§2) Western blot was performed on cortex and hippocampus of TBI-injured animals receiving the first injection of MAP4343 (at 10 mg/kg or 20 mg/kg) or vehicle (sesame oil) 2 h after injury.
(§3) The expression level of various neuronal brain markers of plasticity was measured at day 35 post-trauma by western-blots in the cortex and hippocampus of left uninjured and right injured cerebral hemispheres of CCI traumatized animals receiving either vehicle (sesame oil, CCI-D0) or 3-methoxy-PREG (MAP4343) at 10 mg/kg (CCI-D1) or 20 mg/kg (CCI-D2), with first MAP4343 injection 2 h post-trauma.

PSD95 = assay: Western blot of PSD95 in cortex and hippocampus after CCI; format: in vivo, rat; settings: 20 mg/kg, first injection 2 h post-trauma, day 35, ipsilateral injured cortex and hippocampus, contralateral cortex
Experimental: FIG. 20: PSD-95 expression, 35 days after TBI, in the left-uninjured and right-injured hemispheres (A: cortex and B: hippocampus) of CCI-injured animals, receiving either vehicle (D0) or MAP4343 (D1: 10 mg/kg and D2:20 mg/kg), 2 h after injury.
as §1, §2, §3

PC12 cell line = assay: Cellular toxicity test; format: cell-based, rat; settings: concentrations as high as solubility limits (approximately 50 μM)
Experimental: Cellular toxicity tests are carried out routinely on the PC12 cell line.

[2] = 40 μM, compared to control kinetics with solvent alone
[3] = Day 7, CCI-D1, 10 mg/kg from 24 hours post-trauma
[4] = Day 7, CCI-D2, 20 mg/kg from 24 hours post-trauma
[5] = Day 27, CCI-D1, 10 mg/kg from 24 hours post-trauma
[6] = Day 27, CCI-D2, 20 mg/kg from 24 hours post-trauma

purified tubulin and MAP2, sequence (P11137 whole entry): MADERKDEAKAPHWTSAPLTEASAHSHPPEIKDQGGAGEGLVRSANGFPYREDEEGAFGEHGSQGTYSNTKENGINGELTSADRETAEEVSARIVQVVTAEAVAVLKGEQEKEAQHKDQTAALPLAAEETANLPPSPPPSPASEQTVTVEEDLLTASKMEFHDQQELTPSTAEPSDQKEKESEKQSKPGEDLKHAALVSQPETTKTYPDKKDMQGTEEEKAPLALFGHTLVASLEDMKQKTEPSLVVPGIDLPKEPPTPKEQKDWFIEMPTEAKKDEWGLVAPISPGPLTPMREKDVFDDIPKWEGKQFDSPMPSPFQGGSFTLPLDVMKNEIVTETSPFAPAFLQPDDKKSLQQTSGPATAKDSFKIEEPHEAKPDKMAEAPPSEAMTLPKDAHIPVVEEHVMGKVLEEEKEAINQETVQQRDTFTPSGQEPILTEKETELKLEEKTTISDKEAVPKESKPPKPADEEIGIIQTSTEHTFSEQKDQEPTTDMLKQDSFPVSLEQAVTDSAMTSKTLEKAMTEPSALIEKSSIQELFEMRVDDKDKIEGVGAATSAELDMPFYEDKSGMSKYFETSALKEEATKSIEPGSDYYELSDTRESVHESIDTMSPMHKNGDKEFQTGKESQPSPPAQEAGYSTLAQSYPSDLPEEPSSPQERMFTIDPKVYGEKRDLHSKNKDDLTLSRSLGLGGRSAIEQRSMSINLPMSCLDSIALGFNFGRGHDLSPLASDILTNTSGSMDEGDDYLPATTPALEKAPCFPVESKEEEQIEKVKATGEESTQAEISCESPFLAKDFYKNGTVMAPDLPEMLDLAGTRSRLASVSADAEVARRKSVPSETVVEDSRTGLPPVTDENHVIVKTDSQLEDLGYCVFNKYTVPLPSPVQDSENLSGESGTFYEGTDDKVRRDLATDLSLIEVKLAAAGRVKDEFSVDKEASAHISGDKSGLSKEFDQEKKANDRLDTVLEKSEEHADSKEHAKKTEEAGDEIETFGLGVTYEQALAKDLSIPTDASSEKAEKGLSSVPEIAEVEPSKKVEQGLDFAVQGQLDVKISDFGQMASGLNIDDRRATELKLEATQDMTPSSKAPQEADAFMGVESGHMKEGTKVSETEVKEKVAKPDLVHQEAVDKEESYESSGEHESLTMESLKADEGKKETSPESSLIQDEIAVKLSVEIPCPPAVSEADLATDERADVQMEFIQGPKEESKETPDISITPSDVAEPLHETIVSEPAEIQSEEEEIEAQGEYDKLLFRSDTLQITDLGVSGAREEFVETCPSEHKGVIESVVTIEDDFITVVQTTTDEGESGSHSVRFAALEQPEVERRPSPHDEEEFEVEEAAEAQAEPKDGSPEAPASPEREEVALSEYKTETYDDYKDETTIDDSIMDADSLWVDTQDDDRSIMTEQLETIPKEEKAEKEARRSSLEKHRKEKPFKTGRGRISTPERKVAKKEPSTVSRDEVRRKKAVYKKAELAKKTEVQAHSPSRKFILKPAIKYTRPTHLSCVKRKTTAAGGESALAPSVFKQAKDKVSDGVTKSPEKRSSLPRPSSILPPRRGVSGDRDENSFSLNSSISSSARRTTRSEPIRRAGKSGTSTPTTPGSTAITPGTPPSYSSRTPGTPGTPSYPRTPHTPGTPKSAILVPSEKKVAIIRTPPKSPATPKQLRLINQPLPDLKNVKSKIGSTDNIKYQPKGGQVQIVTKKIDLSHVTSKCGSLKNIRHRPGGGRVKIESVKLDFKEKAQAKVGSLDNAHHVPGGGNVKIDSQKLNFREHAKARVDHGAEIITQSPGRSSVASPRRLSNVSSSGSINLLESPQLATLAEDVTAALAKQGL

## CO[C@H]1CC[C@@]2(C)C(=CC[C@H]3[C@@H]4CC[C@H](C(C)=O)[C@@]4(C)CC[C@@H]32)C1 [3-methoxy-PREG, 3β-methoxy-pregna-5-ene-20-one]
[1]; [2]
  Lag time of microtubule polymerization: decreased
  polymerization rate and quantity of microtubules: clearly increase
[1]; MAP2 and tubulin with GTP, 37° C.
  effect on microtubule polymerization: activates microtubule polymerization
[1]; purified tubulin and MAP2, 37° C., GTP
  Activity (increase in optical density at 345 nm): 100% of PREG
CCI traumatized animals; [3]
  Entry number in CZ, Mean: 64
  Time spent in CZ, Mean: 48
CCI traumatized animals; Day 7, CCI-D2, 20 mg/kg
  Time spent in CZ, Conclusion vs. CCI-D0: ↑
CCI traumatized animals; [4]
  Entry number in CZ, Mean: 73
  Time spent in CZ, Mean: 66
CCI traumatized animals; [5]
  Entry number in CZ, Mean: 79
  Time spent in CZ, Mean: 86
CCI traumatized animals; Day 27, CCI-D2, 20 mg/kg
  Entry number in CZ, Conclusion vs. CCI-D0: ↑ ↑
  Time spent in CZ, Conclusion vs. CCI-D0: ↑
CCI traumatized animals; [6]
  Entry number in CZ, Mean: 114
  Time spent in CZ, Mean: 95
CCI traumatized animals; as early as day 7, in particular at 20 mg/kg (D2)
  anxiety induced by CCI trauma: alleviated
Androgen Receptor (AR)
  % inhibition of specific binding: < 25%
synaptophysin
  Synaptophysin expression: increase in Synaptophysin expression
PSD95
  PSD95 expression: increase in PSD95 expression
PC12 cell line
  cellular toxicity: do not demonstrate toxicity
